Laboratory results: US9133195B2, “Quaternary ammonium salt compounds of spirocyclopiperazines, preparation methods and uses thereof” (Peking University, priority 2006, dated 2015)
Structures can show the parent of a compound that is named as a salt.

Columns and labels:
Kunming mice = assay: Acetic acid-induced writhing test; format: in vivo; details: 31.0 umol/kg s.c., acetic acid i.p. after 30 min, writhing counted for 10 min; for inhibition in vivo at 31 µmol/kg: Mus musculus, sc
Method: Kunming mice, male and female in half, were randomly divided into groups with 8 mice in each group. The following groups were established: the normal saline (NS) control group, in which normal saline was administered by subcutaneous injection (s.c.); the test groups, in which 31.0 umol/kg quaternary ammonium salts compounds of piperazines of the present invention was administered by s.c. All drugs were dissolved in normal saline before use. The drug was injected at the dose of 0.1 ml/10 g. After 30 min, 0.2 ml of 0.6% acetic acid was injected intraperitoneally for each mouse. After 2˜3 min, the writhing reactions such as abdominal constriction, stretch of body and hind limbs, and hip raise occurred. Five minutes after acetic acid injection, the numbers of writhing was counted for 10 min. The percentage of inhibition was determined by using the following formula (1): Inhibition %=[(The numbers of writhing of control group−the numbers of writhing of drag injection group)/the numbers of writhing of control group]×100% (1) 2 Experimental Results
This experiment was carried out according to that of Example 36.

mice [1] = assay: Spontaneous motion in mice; format: in vivo; details: 2.0 mg/kg
Method: (§1) All the following tests were carried out by using compound LXM-10 according to the routine methods.

mice [2] = assay: Function of motion coordination (rota-rod); format: in vivo; details: 2.0 mg/kg
Method: as §1
The effect of muscle-relaxed effect on the analgesic effect of LXM-10 was also excluded.

Body temperature in mice = format: in vivo; details: 2.0 mg/kg
Method: as §1

N#Cc1cccc(N2CC[N+]3(CCCC3)CC2)c1 [LXM-22, 8-(m-cyanophenyl)-5,8-diazaspiro[4.5]decane bromide]
inhibition in vivo at 31 µmol/kg (Kunming mice): 56%

Clc1ccc(N2CC[N+]3(CCCC3)CC2)nn1 [LXM-11, 8-(4-chloro-2,3-pyridazinyl)-5,8-diazaspiro[4.5]decane chloride]
inhibition in vivo at 31 µmol/kg (Kunming mice): 44%

c1ccc(N2CC[N+]3(CCCC3)CC2)cc1 [LXM-18, 8-phenyl-5,8-diazaspiro[4.5]decane bromide]
inhibition in vivo at 31 µmol/kg (Kunming mice): 20%

COc1ccc(N2CC[N+]3(CCCC3)CC2)cc1 [LXM-19, 8-(p-methoxyphenyl)-5,8-diazaspiro[4.5]decane bromide]
inhibition in vivo at 31 µmol/kg (Kunming mice): 56%

CC1CC[N+]2(CC1)CCN(CCc1ccccc1)CC2 [LXM-6, 3-methyl-9-(β-phenylethyl)-6,9-diazaspiro[5.5]undecane chloride]
inhibition in vivo at 31 µmol/kg (Kunming mice): 30%

8-(4-chloro-3-pyridyl)-5,8-diazaspiro[4.5]decane bromide [LXM-24]
Inhibition(%) of writhing (Kunming mice): 46%

CC1C[N+]2(CCN(C/C=C/c3ccccc3)CC2)CC(C)O1 (stereo not shown) [LXM-30, 2,4-dimethyl-9-cinnamenyl-3-oxo-6,9-diazaspiro[5.5] undecane chloride]
inhibition in vivo at 31 µmol/kg (Kunming mice): 43%

COc1ccc(N2CC[N+]3(CCCC3)CC2)cc1 (as salt: bromide) [LXM-19, 8-(p-methoxyphenyl)-5,8-diazaspiro[4.5]decane bromide]
melting point: 201 to 203 °C

CC1C[N+]2(CCN(CCc3ccccn3)CC2)CC(C)O1 (stereo not shown) (as salt: chloride) [LXM-31]
melting point: 247 °C

c1cncc(N2CC[N+]3(CCCC3)CC2)c1 [LXM-25, 8-(3-pyridyl)-5,8-diazaspiro[4.5]decane bromide]
inhibition in vivo at 31 µmol/kg (Kunming mice): 37%

CN1C(=O)CN=C(c2ccccc2)c2cc(Cl)ccc21 [Diazepam, reference compound]
Numbers of movement after treatment (mice [1]; 0.5 h): 5.37 ± 1.64 | Numbers of movement after treatment (mice [1]; 2.0 h): 10.8 ± 3.10 | Numbers of movement after treatment (mice [1]; 3.5 h): 18.2 ± 3.61 | Numbers of movement (mice [1]; before treatment): 51.5 ± 5.15 | Time of falling down from rota-rod after treatment (mice [2]; 0.5 h): 48.8 ± 14.0 s | Time of falling down from rota-rod after treatment (mice [2]; 2.0 h): 73.3 ± 14.1 s | Time of falling down from rota-rod after treatment (mice [2]; 3.5 h): 111.7 ± 6.70 s | Time of falling down from rota-rod (mice [2]; before treatment): 102.5 ± 6.48 s | Rectal temperature after treatment (Body temperature in mice; 0.5 h): 35.1 ± 0.26 °C | Rectal temperature after treatment (Body temperature in mice; 2.0 h): 35.9 ± 0.35 °C | Rectal temperature after treatment (Body temperature in mice; 3.5 h): 36.5 ± 0.31 °C | Rectal temperature (Body temperature in mice; before treatment): 37.6 ± 0.17 °C

C=CCN1CC[N+]2(CC1)CC(C)OC(C)C2 (stereo not shown) (as salt: chloride) [LXM-28, 2,4-dimethyl-9-allyl-3-oxo-6,9-diazaspiro[5.5]undecane chloride]
melting point: 236 °C (dec.)

CC1C[N+]2(CCN(CCc3cccc(F)c3)CC2)CC(C)O1 (stereo not drawn) [LXM-8, 2,4-dimethyl-9-β-(m-fluorophenyl)ethyl-3-oxo-6,9-diazaspiro[5.5]undecane chloride]
inhibition in vivo at 31 µmol/kg (Kunming mice): 55%

O=[N+]([O-])c1cccc(N2CC[N+]3(CCCC3)CC2)c1 [LXM-16, 8-(m-nitrophenyl)-5,8-diazaspiro[4.5]decane bromide]
inhibition in vivo at 31 µmol/kg (Kunming mice): 61%

C=CCN1CC[N+]2(CC1)CC(C)OC(C)C2 (stereo not shown) [LXM-28, 2,4-dimethyl-9-allyl-3-oxo-6,9-diazaspiro[5.5]undecane chloride]
inhibition in vivo at 31 µmol/kg (Kunming mice): 49%

Oc1cccc(N2CC[N+]3(CCCC3)CC2)c1 [LXM-20, 8-(m-hydroxyphenyl)-5,8-diazaspiro[4.5]decane bromide]
inhibition in vivo at 31 µmol/kg (Kunming mice): 53%

CC1C[N+]2(CCN(CCc3cccc([N+](=O)[O-])c3)CC2)CC(C)S1 (stereo not drawn) [LXM-9, 2,4-dimethyl-9-β-(m-nitrophenyl)ethyl-3-thio-6,9-diazaspiro[5.5]undecane chloride]
inhibition in vivo at 31 µmol/kg (Kunming mice): 62%

CC1CC[N+]2(CC1)CCN(CCc1ccccc1)CC2 (as salt: chloride) [LXM-6, 3-methyl-9-(β-phenylethyl)-6,9-diazaspiro[5.5]undecane chloride]
melting point: 230 °C (dec.)

c1ccc(N2CC[N+]3(CCCC3)CC2)cc1 (as salt: bromide) [LXM-18, 8-phenyl-5,8-diazaspiro[4.5]decane bromide]
melting point: 208 to 209 °C

CC1C[N+]2(CCN(CCc3ccccn3)CC2)CC(C)O1 (stereo not shown) [LXM-31]
inhibition in vivo at 31 µmol/kg (Kunming mice): 58%

Fc1cccc(N2CC[N+]3(CCCC3)CC2)c1 [LXM-21, 8-(m-fluorophenyl)-5,8-diazaspiro[4.5]decane bromide]
inhibition in vivo at 31 µmol/kg (Kunming mice): 47%

CCOC(=O)c1cccc(N2CC[N+]3(CCCC3)CC2)c1 [LXM-23, 8-(m-ethoxycarbonylphenyl)-5,8-diazaspiro[4.5]decane bromide]
inhibition in vivo at 31 µmol/kg (Kunming mice): 39%

CC1C[N+]2(CCN(C/C=C/c3ccccc3)CC2)CC(C)O1 (stereo not shown) (as salt: chloride) [LXM-30, 2,4-dimethyl-9-cinnamenyl-3-oxo-6,9-diazaspiro[5.5] undecane chloride]
melting point: 266 to 268 °C
